Experiments:
Format in all cases: in vivo
[1] = tested on: Foxtail, Giant (giant foxtail, Setaria faberi); assay: Test A postemergence, Foxtail, Giant; conditions: Postemergence, 0 to 100 scale (0 no effect, 100 complete control); for Plant response rating, Foxtail, Giant: 125 g ai/ha; for Foxtail, Giant plant response rating: 500 g ai/ha, visual injury vs untreated controls after approx. 10 days
From the text: (§1) Seeds of plant species selected from barnyardgrass (Echinochloa crus-galli), kochia (Bassia scoparia), ragweed (common ragweed, Ambrosia artemisiifolia), Ryegrass, Italian (Italian ryegrass, Lolium multiflorum), Foxtail, Giant (giant foxtail, Setaria faberi), and pigweed (Amaranthus retroflexus) were planted into a blend of loam soil and sand and treated preemergence with a directed soil spray using test chemicals formulated in a non-phytotoxic solvent mixture which included a surfactant. At the same time, plants selected from these weed species and also wheat (Triticum aestivum), corn (Zea mays), blackgrass (Alopecurus myosuroides), and galium (catchweed bedstraw, Galium aparine) were planted in pots containing the same blend of loam soil and sand and treated with postemergence applications of test chemicals formulated in the same manner. Plants ranged in height from 2 to 10 cm and were in the one- to two-leaf stage for the postemergence treatment. […] A dash (-) response means no test result.

[2] = tested on: barnyardgrass (Echinochloa crus-galli); assay: Test A preemergence, barnyardgrass; conditions: Preemergence; for Barnyardgrass plant response rating: 125 g ai/ha, visual injury on 0 to 100 scale (0 no effect, 100 complete control), approximately 10 days; for Plant response rating, Barnyardgrass: 500 g ai/ha, 0 to 100 scale (0 no effect, 100 complete control)
From the text: as §1

[3] = tested on: Ryegrass, Italian (Italian ryegrass, Lolium multiflorum); assay: Test A postemergence, Ryegrass, Italian; conditions: Postemergence, 0 to 100 scale (0 no effect, 100 complete control); for Plant response rating, Ryegrass, Italian: 125 g ai/ha; for Ryegrass, Italian plant response rating: 500 g ai/ha, visual injury vs untreated controls after approx. 10 days
From the text: as §1

[4] = tested on: blackgrass (Alopecurus myosuroides); assay: Test A postemergence, blackgrass; conditions: Postemergence, 0 to 100 scale (0 no effect, 100 complete control); for Plant response rating, Blackgrass: 125 g ai/ha; for Blackgrass plant response rating: 500 g ai/ha, visual injury vs untreated controls after approx. 10 days
From the text: as §1

[5] = tested on: Foxtail, Giant (giant foxtail, Setaria faberi); assay: Test A preemergence, Foxtail, Giant; conditions: Preemergence; for Foxtail, Giant plant response rating: 125 g ai/ha, visual injury on 0 to 100 scale (0 no effect, 100 complete control), approximately 10 days; for Plant response rating, Foxtail, Giant: 500 g ai/ha, 0 to 100 scale (0 no effect, 100 complete control)
From the text: as §1

[6] = tested on: Ryegrass, Italian (Italian ryegrass, Lolium multiflorum); assay: Test A preemergence, Ryegrass, Italian; conditions: Preemergence; for Ryegrass, Italian plant response rating: 125 g ai/ha, visual injury on 0 to 100 scale (0 no effect, 100 complete control), approximately 10 days; for Plant response rating, Ryegrass, Italian: 500 g ai/ha, 0 to 100 scale (0 no effect, 100 complete control)
From the text: as §1

[7] = tested on: kochia (Bassia scoparia); assay: Test A postemergence, kochia; conditions: Postemergence, 0 to 100 scale (0 no effect, 100 complete control); for Plant response rating, Kochia: 125 g ai/ha; for Kochia plant response rating: 500 g ai/ha, visual injury vs untreated controls after approx. 10 days
From the text: as §1

[8] = tested on: kochia (Bassia scoparia); assay: Test A preemergence, kochia; conditions: Preemergence; for Kochia plant response rating: 125 g ai/ha, visual injury on 0 to 100 scale (0 no effect, 100 complete control), approximately 10 days; for Plant response rating, Kochia: 500 g ai/ha, 0 to 100 scale (0 no effect, 100 complete control)
From the text: as §1

[9] = tested on: pigweed (Amaranthus retroflexus); assay: Test A postemergence, pigweed; conditions: Postemergence, 0 to 100 scale (0 no effect, 100 complete control); for Plant response rating, Pigweed: 125 g ai/ha; for Pigweed plant response rating: 500 g ai/ha, visual injury vs untreated controls after approx. 10 days
From the text: as §1

[10] = tested on: corn (Zea mays); assay: Test A postemergence, corn; conditions: Postemergence, 0 to 100 scale (0 no effect, 100 complete control); for Plant response rating, Corn: 125 g ai/ha; for Corn plant response rating: 500 g ai/ha, visual injury vs untreated controls after approx. 10 days
From the text: as §1

[11] = tested on: galium (catchweed bedstraw, Galium aparine); assay: Test A postemergence, galium; conditions: Postemergence, 0 to 100 scale (0 no effect, 100 complete control); for Plant response rating, Galium: 125 g ai/ha; for Galium plant response rating: 500 g ai/ha, visual injury vs untreated controls after approx. 10 days
From the text: as §1

[12] = tested on: ragweed (common ragweed, Ambrosia artemisiifolia); assay: Test A postemergence, ragweed; conditions: Postemergence, 0 to 100 scale (0 no effect, 100 complete control); for Plant response rating, Ragweed: 125 g ai/ha; for Ragweed plant response rating: 500 g ai/ha, visual injury vs untreated controls after approx. 10 days
From the text: as §1

[13] = tested on: barnyardgrass (Echinochloa crus-galli); assay: Test A postemergence, barnyardgrass; conditions: Postemergence, 0 to 100 scale (0 no effect, 100 complete control); for Plant response rating, Barnyardgrass: 125 g ai/ha; for Barnyardgrass plant response rating: 500 g ai/ha, visual injury vs untreated controls after approx. 10 days
From the text: as §1

[14] = tested on: ragweed (common ragweed, Ambrosia artemisiifolia); assay: Test A preemergence, ragweed; conditions: Preemergence; for Ragweed plant response rating: 125 g ai/ha, visual injury on 0 to 100 scale (0 no effect, 100 complete control), approximately 10 days; for Plant response rating, Ragweed: 500 g ai/ha, 0 to 100 scale (0 no effect, 100 complete control)
From the text: as §1

[15] = tested on: wheat (Triticum aestivum); assay: Test A postemergence, wheat; conditions: Postemergence, 0 to 100 scale (0 no effect, 100 complete control); for Plant response rating, Wheat: 125 g ai/ha; for Wheat plant response rating: 500 g ai/ha, visual injury vs untreated controls after approx. 10 days
From the text: as §1

In the case of `Cc1cc(C)c(C2=NOC3CCCC23)cc1NS(=O)(=O)C(F)(F)F` (stereo not drawn) [Compound 166], the “Plant response rating, Foxtail, Giant” value [1] is reported as 50, the “Foxtail, Giant plant response rating” value [1] is reported as 60 and the “Barnyardgrass plant response rating” value [2] is reported as 100. The “Plant response rating, Barnyardgrass” value [2] was 100, the “Plant response rating, Ryegrass, Italian” value [3] was 90 and the “Ryegrass, Italian plant response rating” value [3] was 90. The “Plant response rating, Blackgrass” value [4] was 10, the “Blackgrass plant response rating” value [4] was 20 and the “Foxtail, Giant plant response rating” value [5] was 80. The “Plant response rating, Foxtail, Giant” value [5] was 100, the “Ryegrass, Italian plant response rating” value [6] was 70 and the “Plant response rating, Ryegrass, Italian” value [6] was 100. The “Plant response rating, Kochia” value [7] was 50, the “Kochia plant response rating” value [7] was 80 and the “Kochia plant response rating” value [8] was 90. The “Plant response rating, Kochia” value [8] was 100, the “Plant response rating, Pigweed” value [9] was 40 and the “Pigweed plant response rating” value [9] was 90. The “Plant response rating, Corn” value [10] was 10, the “Corn plant response rating” value [10] was 50 and the “Plant response rating, Galium” value [11] was 80. The “Galium plant response rating” value [11] was 90, the “Plant response rating, Ragweed” value [12] was 40 and the “Ragweed plant response rating” value [12] was 80. The “Plant response rating, Barnyardgrass” value [13] was 90, the “Barnyardgrass plant response rating” value [13] was 90 and the “Ragweed plant response rating” value [14] was 20. The “Plant response rating, Ragweed” value [14] was 80, the “Plant response rating, Wheat” value [15] was 70 and the “Wheat plant response rating” value [15] was 70.

`Cc1cc(C)c(C2=NOC3(CCC(F)(F)CC3)C2)cc1NS(=O)(=O)C(F)(F)F` [Compound 172] was tested, and the “Plant response rating, Foxtail, Giant” value [1] was 20, the “Foxtail, Giant plant response rating” value [1] was 80 and the “Barnyardgrass plant response rating” value [2] was 90. For the same compound, the “Plant response rating, Barnyardgrass” value [2] was 90, the “Plant response rating, Ryegrass, Italian” value [3] was 60 and the “Ryegrass, Italian plant response rating” value [3] was 80. The “Plant response rating, Blackgrass” value [4] was 0, the “Blackgrass plant response rating” value [4] was 40 and the “Foxtail, Giant plant response rating” value [5] was 90. The “Plant response rating, Foxtail, Giant” value [5] was 100, the “Ryegrass, Italian plant response rating” value [6] was 100 and the “Plant response rating, Ryegrass, Italian” value [6] was 100. For the same compound, the “Plant response rating, Kochia” value [7] was 40, the “Kochia plant response rating” value [7] was 80 and the “Kochia plant response rating” value [8] was 60. For the same compound, the “Plant response rating, Kochia” value [8] was 90, the “Plant response rating, Pigweed” value [9] was 70 and the “Pigweed plant response rating” value [9] was 90. For the same compound, the “Plant response rating, Corn” value [10] was 40, the “Corn plant response rating” value [10] was 70 and the “Plant response rating, Galium” value [11] was 90. The “Galium plant response rating” value [11] was 90, the “Plant response rating, Ragweed” value [12] was 60 and the “Ragweed plant response rating” value [12] was 80. For the same compound, the “Plant response rating, Barnyardgrass” value [13] was 60, the “Barnyardgrass plant response rating” value [13] was 80 and the “Ragweed plant response rating” value [14] was 40. The “Plant response rating, Ragweed” value [14] was 90, the “Plant response rating, Wheat” value [15] was 30 and the “Wheat plant response rating” value [15] was 70.

For `Cc1cc(C)c(C2=NOC3(CCSCC3)C2)cc1NS(=O)(=O)C(F)(F)F` [Compound 176], the “Plant response rating, Foxtail, Giant” value [1] was 90, the “Foxtail, Giant plant response rating” value [1] was 90 and the “Barnyardgrass plant response rating” value [2] was 70. The “Plant response rating, Barnyardgrass” value [2] was 90, the “Plant response rating, Ryegrass, Italian” value [3] was 60 and the “Ryegrass, Italian plant response rating” value [3] was 80. For the same compound, the “Plant response rating, Blackgrass” value [4] was 40, the “Blackgrass plant response rating” value [4] was 70 and the “Foxtail, Giant plant response rating” value [5] was 100. The “Plant response rating, Foxtail, Giant” value [5] was 100, the “Ryegrass, Italian plant response rating” value [6] was 90 and the “Plant response rating, Ryegrass, Italian” value [6] was 100. The “Plant response rating, Kochia” value [7] was 40, the “Kochia plant response rating” value [7] was 50 and the “Kochia plant response rating” value [8] was 70. For the same compound, the “Plant response rating, Kochia” value [8] was 90, the “Plant response rating, Pigweed” value [9] was 60 and the “Pigweed plant response rating” value [9] was 90. For the same compound, the “Plant response rating, Corn” value [10] was 70, the “Corn plant response rating” value [10] was 80 and the “Plant response rating, Galium” value [11] was 90. For the same compound, the “Galium plant response rating” value [11] was 90, the “Plant response rating, Ragweed” value [12] was 60 and the “Ragweed plant response rating” value [12] was 90. The “Plant response rating, Barnyardgrass” value [13] was 80, the “Barnyardgrass plant response rating” value [13] was 90 and the “Ragweed plant response rating” value [14] was 40. For the same compound, the “Plant response rating, Ragweed” value [14] was 90, the “Plant response rating, Wheat” value [15] was 60 and the “Wheat plant response rating” value [15] was 60.

With `C#CCN(C)C(=O)c1cc(NS(=O)(=O)C(F)(F)F)c(C)c(F)c1C` [Compound 179] the “Plant response rating, Foxtail, Giant” value [1] was 70, the “Foxtail, Giant plant response rating” value [1] was 90 and the “Barnyardgrass plant response rating” value [2] was 90. The “Plant response rating, Barnyardgrass” value [2] was 90, the “Plant response rating, Ryegrass, Italian” value [3] was 40 and the “Ryegrass, Italian plant response rating” value [3] was 80. For the same compound, the “Plant response rating, Blackgrass” value [4] was 20, the “Blackgrass plant response rating” value [4] was 40 and the “Foxtail, Giant plant response rating” value [5] was 80. For the same compound, the “Plant response rating, Foxtail, Giant” value [5] was 100, the “Ryegrass, Italian plant response rating” value [6] was 100 and the “Plant response rating, Ryegrass, Italian” value [6] was 100. The “Plant response rating, Kochia” value [7] was 60, the “Kochia plant response rating” value [7] was 70 and the “Kochia plant response rating” value [8] was 90. The “Plant response rating, Kochia” value [8] was 90, the “Plant response rating, Pigweed” value [9] was 80 and the “Pigweed plant response rating” value [9] was 90. For the same compound, the “Plant response rating, Corn” value [10] was 20, the “Corn plant response rating” value [10] was 80 and the “Plant response rating, Galium” value [11] was 90. The “Galium plant response rating” value [11] was 90, the “Plant response rating, Ragweed” value [12] was 90 and the “Ragweed plant response rating” value [12] was 90. The “Plant response rating, Barnyardgrass” value [13] was 90, the “Barnyardgrass plant response rating” value [13] was 90 and the “Ragweed plant response rating” value [14] was 90. The “Plant response rating, Ragweed” value [14] was 90, the “Plant response rating, Wheat” value [15] was 0 and the “Wheat plant response rating” value [15] was 60.

Reference: patent US20230278972A1, “SUBSTITUTED HALOALKYL SULFONANILIDE HERBICIDES” (FMC Corporation, priority 2020, published 2023)
